The values that follow come from article PMC7285913, “In vitro hepatic biotransformation of the algal toxin pectenotoxin-2” (Toxicon: X, 2020).

The conditions of data set [1]: ref Alexander et al., 2009, cited from earlier work; for provisional toxicity equivalent factor (TEF): EFSA.
In data set [2] the test system is mice. Conditions: single oral doses of 0.3, 1 and 5 mg/kg bw, preliminary data, ref Burgess and Shaw, 2001, Alexander et al., 2009; cited from earlier work.
The test system of data set [3] is primary rat hepatocytes. Kind of data set: Calculation of the hepatic clearance and maximum bioavailability of PTX-2 in rats from hepatocyte half-life. It is filed as in vitro ADME. The following applies: for CLb: predicted in vivo hepatic blood clearance in rat, well-stirred model, fub = 1; for CLint: scaled from rat hepatocyte assay. As to the method: The in vitro assay clearance (CLassay) of PTX-2 was calculated from the hepatocyte incubations run with first order kinetics (CLassay = Vassay × ln2/t1/2 [Lh^−1]) using the assay volume (Vassay) and the disappearance half-life (t1/2) of the parent compound as determined from the slope of the linear regression from a semi-logarithmic concentration vs. time plot ([Obach, 1999]). […] The in vivo hepatic blood clearance (CLb) was calculated from CLint by applying the non-restricted well-stirred model (CLb = CLint x Q/(CLint + Q) [L (h x kg)^−1]) ([Houston, 1994]), considering the hepatic blood flow in rat (Q ~ 4.2 L (h x kg)^−1) ([Lin and Lu, 1998]). Potential binding to blood components in vivo was not considered in this study and thus the fraction unbound in blood (fub) set to 1. The maximum bioavailability (Fmax) of PTX-2 in rats was estimated (Fmax = Fa x (1 – (CLb/Q) under the assumption of complete absorption from the gastrointestinal tract (Fa = 1) ([De Buck et al., 2007]) and negligible non-hepatic elimination. Fmax was ranked according to the criteria for low (0–10%), moderate (10–30%) and high bioavailability (up to 100%) ([Obach, 1996]).

In data set [4] the test system is mice. The following applies: intestinal toxicity in mice; ref Alexander et al., 2009; cited from earlier work.
A short description of data set [5]: In vitro hepatocyte assay under kinetic conditions (PTX-2 disappearance). It is filed as in vitro ADME, Wistar rats. Conditions: male, Wistar, primary rat hepatocytes in suspension, pH 7.4, primary rat hepatocytes, read-out: t½,assay (converted). As to the method: (§1) Isolated rat liver cells were prepared by a two-step collagenase ex vivo perfusion from male Wistar rats, weighing 250–300 g and kept under routine laboratory conditions with free access to standard laboratory pelleted feed and water ([Seglen, 1976]). The hepatocytes were separated by gradient centrifugation ([Fæste and Moldes-Anaya, 2016]), suspended in PBS, and stored for up to 1 h on ice before use ([Sidelmann et al., 1996], [Gebhardt et al., 2003]). Cell viability was determined microscopically (Leica DMIL microscope; Leica Microsystems GmBH, Wetzlar, Germany), using Trypan blue staining and a Neubauer-counting chamber. About 2.5 × 10^8 living cells per liver were obtained on average, and only preparations with viabilities >92% were used in the metabolism experiments.
(§2) The hepatocyte suspension was diluted with KRB–HEPES buffer pH 7.4 (Krebs-Ringer buffer containing 145 mM NaCl, 5.4 mM KCl, 0.8 mM MgSO4, 0.33 mM Na2HPO4, 0.34 mM KH2PO4, 2 mM CaCl2, and 20 mM HEPES) to a final assay concentration of 2.5 × 10^6 cells/mL. The incubations were performed in capped round-bottom glass tubes in a total assay volume of 5 mL. After pre-incubation for 5 min at 37 °C in a shaking water bath, 5–25 μL of a PTX-2 stock solution containing 1 mg/mL PTX-2 in MeOH were added, resulting in initial concentrations of 1–5 μg/mL PTX-2 in the assay. Aliquots (300 μL) were taken after 0, 2.5, 5, 7.5, 10, 15, 30, and 60 min of incubation and directly transferred into 300 μL ice-cold acetonitrile (ACN) in Eppendorf tubes. Two control samples were included in the experiments, a blank matrix control and a PTX-2 stability control. After centrifuging all samples at 16,000 g for 1 min (5415D centrifuge; Eppendorf AG, Hamburg, Germany), the supernatants were transferred to HPLC vials for analysis by liquid chromatography mass spectrometry (LC-MS) to determine the half-life of PTX-2 in rat hepatocytes.
(§3) LC-MS analyses of centrifuged aliquots from the kinetic assays were performed under reversed phase conditions using a Symmetry C18 column (5 μm, 3.9 × 150 mm) (Waters, Milford, MA, USA) and a binary LC pump (Finnigan Mod. 250) coupled to an Autosampler Plus (Thermo Electron Corporation, San Jose, CA, USA). 5–20 μL samples were injected and eluted using a linear gradient starting with ACN/water (40:60, v/v, both containing 0.1% formic acid and 2 mM ammonium formate) and rising to 100% ACN in 20 min. Isocratic elution with 100% ACN was maintained for 5 min before the eluent was returned to the starting conditions. The flow rate was set to 1 mL/min.

The subject of data set [6] is primary rat hepatocytes. Described as above. It is filed as in vitro ADME, Wistar rats. As to the method: as §1, §2, §3
In data set [7] the test system is mice. Conditions: mouse, ref Suzuki et al., 2006, cited from earlier work.
A further data set has as its system mussels. Conditions: in mussels, in contrast to PTX-2; ref MacKenzie et al., 2005; cited from earlier work.

As to `CC1=C\[C@H](C)C[C@@]2(C)CC[C@@H](O2)[C@@]23CC[C@@](CO)(C[C@@H](O2)[C@H]2O[C@](C)(CC2=O)[C@@H](O)[C@@H]2CC[C@@]4(CCC[C@H](O4)[C@@H](C)C(=O)O[C@@H]4C[C@@H]([C@@]5(O)OCC[C@@H](C)[C@H]5O)O[C@@H]4\C=C\1)O2)O3` [PTX-1, reference compound], the “provisional toxicity equivalent factor (TEF)” value in data set [1] is on record as 1.

Regarding `CC(/C=C/[C@H]1O[C@H]([C@@]2(O)OCC[C@@H](C)[C@H]2O)C[C@H]1O)=C\[C@H](C)C[C@@]1(C)CC[C@H]([C@@]23CC[C@@](C)(C[C@H]([C@H]4O[C@@](C)([C@@H](O)[C@@H]5CCC6(CCC[C@@H]([C@@H](C)C(=O)O)O6)O5)CC4=O)O2)O3)O1` (stereo partly drawn) [PTX-2 seco acid (SA), pectenotoxin-2 seco acid], the “relative toxicity” value in data set [1] (compared with PTXs given TEF of 1) is “much less toxic”.

Consider `CC1=CC(C)CC2(C)CCC(O2)C23CCC(C)(CC(O2)C2OC(C)(CC2=O)C(O)C2CCC4(CCCC(O4)C(C)C(=O)OC4CC(C5(O)OCCC(C)C5O)OC4C=C1)O2)O3` (stereo not drawn) [PTX-2, pectenotoxin-2], for which, in the data set with mice [2], the metabolic elimination result was “considerable metabolic elimination” and the “uptake from the gastrointestinal tract” value is listed as “low uptake from the gastrointestinal tract”. Further, in data set [1], the “provisional toxicity equivalent factor (TEF)” value is listed as 1. In addition, the “acute reference dose (ARfD)” value in data set [1] (established by EFSA) is on record as 0.8 μg PTX-2 equivalents/kg body weight (bw). In the data set on primary rat hepatocytes [3] (PTX-2 1.4 μg/mL), the CLb was 47.3 mL/min/kg and the CLint is 146 mL/min/kg. Moreover, in the data set with primary rat hepatocytes [3] (PTX-2 2.6 μg/mL), the CLb is 50 mL/min/kg and the CLint was 174 mL/min/kg. In the data set with primary rat hepatocytes [3] (PTX-2 4.8 μg/mL), the CLb was 47 mL/min/kg and the CLint was 143 mL/min/kg. Further, in the data set on primary rat hepatocytes [3] (after oral uptake, rat), the “compound predicted to remain unmetabolized after the first pass through the liver” value is “up to 32%”. The “predicted hepatic blood clearance (rank)” value in the data set with primary rat hepatocytes [3] (rat, negligible protein binding and unrestricted absorption assumed) is “moderate”. For the same compound, in the data set with mice [4], the “lowest-observed-adverse-effect-level (LOAEL)” value is 250 μg/kg bw. For the same compound, the half-life at 1.4 μg/mL in data set [5] (PTX-2 1.4 μg/mL) was 11.4 min. Further, the half-life at 2.6 μg/mL in data set [5] (PTX-2 2.6 μg/mL) is 9.6 min. Besides, the half-life at 4.8 μg/mL in data set [5] (PTX-2 4.8 μg/mL) is 12 min. Also, the PTX-2 remaining unchanged in the data set on primary rat hepatocytes [6] (after 30 min of incubation, all concentrations, rat hepatocytes) was 17–20%. In the data set on primary rat hepatocytes [6] (freshly isolated rat hepatocytes), the “metabolism in freshly isolated rat hepatocytes” value is given as “rapidly metabolized”.

Take `CC1=C\[C@H](C)C[C@@]2(C)CC[C@@H](O2)[C@@]23CC[C@@](C=O)(C[C@@H](O2)[C@H]2O[C@](C)(CC2=O)[C@@H](O)[C@@H]2CC[C@@]4(CCC[C@H](O4)[C@@H](C)C(=O)O[C@@H]4C[C@@H]([C@@]5(O)OCC[C@@H](C)[C@H]5O)O[C@@H]4\C=C\1)O2)O3` [PTX-3]: in data set [1], the “provisional toxicity equivalent factor (TEF)” value was 1.

With `CC1=C\[C@H](C)C[C@@]2(C)CC[C@@H](O2)[C@@]23CC[C@@](CO)(C[C@@H](O2)[C@H]2O[C@](C)(CC2=O)[C@@H](O)[C@@H]2CC[C@]4(CCC[C@H](O4)[C@@H](C)C(=O)O[C@@H]4C[C@@H]([C@@]5(O)OCC[C@@H](C)[C@H]5O)O[C@@H]4\C=C\1)O2)O3` [PTX-4], the “provisional toxicity equivalent factor (TEF)” value in data set [1] is 1.

As to `CC1=C\[C@H](C)C[C@@]2(C)CC[C@@H](O2)[C@@]23CC[C@@](C(=O)O)(C[C@@H](O2)[C@H]2O[C@](C)(CC2=O)[C@@H](O)[C@@H]2CC[C@@]4(CCC[C@H](O4)[C@@H](C)C(=O)O[C@@H]4C[C@@H]([C@@]5(O)OCC[C@@H](C)[C@H]5O)O[C@@H]4\C=C\1)O2)O3` [PTX-6], the “provisional toxicity equivalent factor (TEF)” value in data set [1] was 1.

Regarding `CC1=C\[C@H](C)C[C@@]2(C)CC[C@@H](O2)[C@@]23CC[C@@](C)(C[C@@H](O2)[C@H]2O[C@](C)(CC2=O)[C@@H](O)[C@@H]2CC[C@@]4(CCC[C@H](O4)[C@@H](C)C(=O)O[C@@H]4[C@H](O)[C@@H]([C@@]5(O)OCC[C@@H](C)[C@H]5O)O[C@@H]4\C=C\1)O2)O3` [PTX-11, 34 S-hydroxypectenotoxin-2], the “effects after oral application” value in the data set on mice [7] (as much as 5 mg/kg bw p. o.) is “no effects were detected”. In the data set with mice [7] (i. p.), the LD50 was 0.24 mg/kg bw. Moreover, the “provisional toxicity equivalent factor (TEF)” value in data set [1] is on record as 1. Moreover, in the data set with mussels, the “resistance to enzymatic hydrolysis” value is “relatively resistant to enzymatic hydrolysis”.
